Experimental data from the NIST ThermoML archive (doi:10.1016/j.jct.2017.12.023).
± gives the expanded uncertainty stated by the source.

Experiment: refractive index (Na D-line) (dimensionless); xn = mol fraction of the nth substance listed
Details: 100 kPa, Liquid, Standard Abbe refractometry

CCOS(=O)(=O)[O-].CCn1cc[n+](C)c1 [1-ethyl-3-methylimidazolium ethyl sulfate] + CCCCCCO
refractive index
Details | x1 = 0.1016 | x1 = 0.2016 | x1 = 0.3005 | x1 = 0.3989 | x1 = 0.4975 | x1 = 0.5956 | x1 = 0.6647 | x1 = 0.7947 | x1 = 0.897 | x1 = 1
288.15 K | 1.42855 ± 0.00069 | 1.43639 ± 0.00069 | 1.44364 ± 0.00069 | 1.45017 ± 0.00069 | 1.45653 ± 0.00069 | 1.46223 ± 0.00069 | 1.46592 ± 0.00069 | 1.47274 ± 0.00069 | 1.47731 ± 0.00069 | 1.48155 ± 0.00069
293.15 K | 1.42666 ± 0.00069 | 1.4346 ± 0.00069 | 1.44194 ± 0.00069 | 1.44856 ± 0.00069 | 1.45499 ± 0.00069 | 1.46075 ± 0.00069 | 1.46447 ± 0.00069 | 1.47132 ± 0.00069 | 1.47593 ± 0.00069 | 1.48018 ± 0.00069
298.15 K | 1.42478 ± 0.00069 | 1.43283 ± 0.00069 | 1.44025 ± 0.00069 | 1.44701 ± 0.00069 | 1.45346 ± 0.00069 | 1.45927 ± 0.00069 | 1.46303 ± 0.00069 | 1.4699 ± 0.00069 | 1.47456 ± 0.00069 | 1.47882 ± 0.00069
303.15 K | 1.4229 ± 0.00069 | 1.43107 ± 0.00069 | 1.43858 ± 0.00069 | 1.44545 ± 0.00069 | 1.45193 ± 0.00069 | 1.4578 ± 0.00069 | 1.4616 ± 0.00069 | 1.46848 ± 0.00069 | 1.4732 ± 0.00069 | 1.47746 ± 0.00069
308.15 K | 1.42103 ± 0.00069 | 1.42932 ± 0.00069 | 1.43692 ± 0.00069 | 1.44387 ± 0.00069 | 1.4504 ± 0.00069 | 1.45631 ± 0.00069 | 1.46017 ± 0.00069 | 1.46706 ± 0.00069 | 1.47182 ± 0.00069 | 1.47611 ± 0.00069
313.15 K | 1.41917 ± 0.00069 | 1.42758 ± 0.00069 | 1.43525 ± 0.00069 | 1.44225 ± 0.00069 | 1.44886 ± 0.00069 | 1.45481 ± 0.00069 | 1.45872 ± 0.00069 | 1.46564 ± 0.00069 | 1.47044 ± 0.00069 | 1.47474 ± 0.00069
318.15 K | 1.41729 ± 0.00069 | 1.42582 ± 0.00069 | 1.43358 ± 0.00069 | 1.44065 ± 0.00069 | 1.44735 ± 0.00069 | 1.45333 ± 0.00069 | 1.45726 ± 0.00069 | 1.46423 ± 0.00069 | 1.46907 ± 0.00069 | 1.47341 ± 0.00069
323.15 K | 1.41543 ± 0.00069 | 1.42407 ± 0.00069 | 1.43195 ± 0.00069 | 1.4391 ± 0.00069 | 1.44582 ± 0.00069 | 1.45184 ± 0.00069 | 1.45582 ± 0.00069 | 1.46285 ± 0.00069 | 1.46769 ± 0.00069 | 1.47206 ± 0.00069

CCOS(=O)(=O)[O-].CCn1cc[n+](C)c1 [1-ethyl-3-methylimidazolium ethyl sulfate] + CN1CCCC1=O
refractive index
Details | 288.15 K | 293.15 K | 298.15 K | 303.15 K | 308.15 K | 313.15 K | 318.15 K | 323.15 K | 328.15 K | 333.15 K
x1 = 0.1009 | 1.47616 ± 0.00069 | 1.47418 ± 0.00069 | 1.47223 ± 0.00069 | 1.47026 ± 0.00069 | 1.46833 ± 0.00069 | 1.46634 ± 0.00069 | 1.4644 ± 0.00069 | 1.46246 ± 0.00069 | 1.46054 ± 0.00069 | 1.45863 ± 0.00069
x1 = 0.2012 | 1.47863 ± 0.00069 | 1.47679 ± 0.00069 | 1.47496 ± 0.00069 | 1.47313 ± 0.00069 | 1.4713 ± 0.00069 | 1.46948 ± 0.00069 | 1.46772 ± 0.00069 | 1.4659 ± 0.00069 | 1.46409 ± 0.00069 | 1.46232 ± 0.00069
x1 = 0.3021 | 1.47981 ± 0.00069 | 1.47807 ± 0.00069 | 1.47633 ± 0.00069 | 1.4746 ± 0.00069 | 1.47285 ± 0.00069 | 1.47118 ± 0.00069 | 1.4695 ± 0.00069 | 1.46777 ± 0.00069 | 1.46607 ± 0.00069 | 1.46438 ± 0.00069
x1 = 0.4012 | 1.48047 ± 0.00069 | 1.47881 ± 0.00069 | 1.47714 ± 0.00069 | 1.47547 ± 0.00069 | 1.47384 ± 0.00069 | 1.47225 ± 0.00069 | 1.47069 ± 0.00069 | 1.46906 ± 0.00069 | 1.46742 ± 0.00069 | 1.46584 ± 0.00069
x1 = 0.4973 | 1.48086 ± 0.00069 | 1.47925 ± 0.00069 | 1.47766 ± 0.00069 | 1.47608 ± 0.00069 | 1.47453 ± 0.00069 | 1.473 ± 0.00069 | 1.47143 ± 0.00069 | 1.46985 ± 0.00069 | 1.46828 ± 0.00069 | 1.46677 ± 0.00069
x1 = 0.596 | 1.48094 ± 0.00069 | 1.47939 ± 0.00069 | 1.47787 ± 0.00069 | 1.47635 ± 0.00069 | 1.47488 ± 0.00069 | 1.47343 ± 0.00069 | 1.47195 ± 0.00069 | 1.47045 ± 0.00069 | 1.46895 ± 0.00069 | 1.46746 ± 0.00069
x1 = 0.6998 | 1.48099 ± 0.00069 | 1.47951 ± 0.00069 | 1.47804 ± 0.00069 | 1.47659 ± 0.00069 | 1.47517 ± 0.00069 | 1.47375 ± 0.00069 | 1.47229 ± 0.00069 | 1.47084 ± 0.00069 | 1.46939 ± 0.00069 | 1.46794 ± 0.00069
x1 = 0.7961 | 1.48127 ± 0.00069 | 1.47983 ± 0.00069 | 1.47841 ± 0.00069 | 1.47701 ± 0.00069 | 1.47561 ± 0.00069 | 1.47423 ± 0.00069 | 1.47284 ± 0.00069 | 1.47143 ± 0.00069 | 1.47005 ± 0.00069 | 1.46865 ± 0.00069
x1 = 0.8821 | 1.48147 ± 0.00069 | 1.48006 ± 0.00069 | 1.47867 ± 0.00069 | 1.47728 ± 0.00069 | 1.47592 ± 0.00069 | 1.47453 ± 0.00069 | 1.47317 ± 0.00069 | 1.4718 ± 0.00069 | 1.47044 ± 0.00069 | 1.4691 ± 0.00069
x1 = 1 | 1.48155 ± 0.00069 | 1.48018 ± 0.00069 | 1.47882 ± 0.00069 | 1.47746 ± 0.00069 | 1.47611 ± 0.00069 | 1.47474 ± 0.00069 | 1.47341 ± 0.00069 | 1.47206 ± 0.00069 | 1.47075 ± 0.00069 | 1.46943 ± 0.00069
